We go through twelve molecules from US5914319A, “Antithrombotic agents” (Eli Lilly and Company, priority 1995, dated 1999).

The conditions of data set [1]: early clinical studies, Simoons et al., Circulation, 90, I-231 (1994); cited from earlier work.
A short description of data set [2]: Index of bioavailability (% Relative Activity from plasma TT time course). Format: in vivo. Particulars: dose-adjusted AUC of plasma TT time course, p.o. versus i.v. bolus. The procedure: Parke Davis) at 37° C. […] Assays are done in duplicate and averaged. […] Each sample population represented alternating sequential time points.
Data set [3] concerns Human plasma. Put plainly: Human plasma anticoagulation, thrombin time (TT). It counts as biochemical. Particulars: concentration required to double the thrombin time, linear extrapolation. Put shortly:
(§1)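 Citrated human plasma + cpd (broad conc. range); instrument clot timing. PT: saline/Thromboplastin-C. APTT: Actin 120 s, then CaCl2 0.02M. TT: saline/bovine thrombin 10 NIH units/mL. Value = conc. doubling clotting time, linear extrapolation.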

For data set [4], the system named is Human plasma. Put plainly: Human plasma anticoagulation, prothrombin time (PT). Format: biochemical. Particulars: concentration required to double the PT, linear extrapolation. The method in brief: as §1
The test system of data set [5] is Human plasma. The experiment in a line: Human plasma anticoagulation, activated partial thromboplastin time (APTT). It counts as biochemical. The following applies: concentration required to double the APTT, linear extrapolation. The method in brief: as §1
A further data set concerns the target human thrombin (Homo sapiens, UniProt P00734). Put plainly: Inhibition of the amidase activity of thrombin (Kass). Format: biochemical.
Data set [6] deals with T1, tissue plasminogen activator (t-PA) (Homo sapiens, UniProt P00750).
T1 construct: purchased American Diagnostica, Greenwich, Conn
T1 sequence (P00750 36-562): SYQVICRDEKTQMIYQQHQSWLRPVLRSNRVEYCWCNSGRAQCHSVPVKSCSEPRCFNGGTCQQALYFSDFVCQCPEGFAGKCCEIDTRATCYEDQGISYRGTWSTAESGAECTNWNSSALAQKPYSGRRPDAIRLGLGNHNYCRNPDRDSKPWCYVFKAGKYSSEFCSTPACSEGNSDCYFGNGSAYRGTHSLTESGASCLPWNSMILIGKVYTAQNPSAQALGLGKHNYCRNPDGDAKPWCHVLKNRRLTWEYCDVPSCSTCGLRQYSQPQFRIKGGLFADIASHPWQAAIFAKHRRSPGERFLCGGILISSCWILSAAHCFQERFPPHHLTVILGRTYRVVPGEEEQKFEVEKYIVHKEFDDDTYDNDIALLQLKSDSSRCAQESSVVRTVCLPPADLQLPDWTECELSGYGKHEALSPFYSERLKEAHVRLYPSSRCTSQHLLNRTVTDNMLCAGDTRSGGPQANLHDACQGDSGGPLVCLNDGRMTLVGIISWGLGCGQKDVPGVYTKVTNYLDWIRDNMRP
The experiment in a line: Kass with fibrinolytic system proteases: t-PA. Format: biochemical. Particulars: substrate H-D-Ile-Pro-Arg-p-nitroanilide. As to the method: (§2) By substantially following the procedures described above for human thrombin, and using other human blood coagulation system serine proteases and proteases of the fibrinolytic system with the appropriate chromogenic substrates, identified below, selectivity of the compounds of the present invention with respect to the coagulation factor serine proteases and with respect to the fibrinolytic system serine proteases are evaluated as well as their substantial lack of interference with serine proteases of the fibrinolytic system. […] This would be important to the therapeutic use of such agents as an adjunct to streptokinase, t-PA or urokinase thrombolytic therapy and to the use of such agents as an endogenous fibrinolysis-sparing (with respect to t-PA and urokinase) antithrombotic agent. In addition to the lack of interference with the amidase activity of the fibrinolytic proteases, such fibrinolytic system sparing can be studied by the use of human plasma clots and their lysis by the respective fibrinolytic plasminogen activators.

The target of the next data set is T2, factor Xa (Homo sapiens, UniProt P00742).
T2 construct: Human factors X, Xa, IXa, XIa, and XIIa are purchased; purchased Enzyme Research Laboratories, South Bend, Ind
T2 sequence (P00742 235-488 limits assumed): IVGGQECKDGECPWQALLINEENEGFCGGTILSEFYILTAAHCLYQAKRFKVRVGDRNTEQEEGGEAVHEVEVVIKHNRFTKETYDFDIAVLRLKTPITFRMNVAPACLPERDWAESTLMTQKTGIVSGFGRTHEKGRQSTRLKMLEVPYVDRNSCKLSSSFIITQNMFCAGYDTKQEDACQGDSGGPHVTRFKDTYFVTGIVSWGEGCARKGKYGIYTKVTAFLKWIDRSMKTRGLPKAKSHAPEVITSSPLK
T2 sequence (P00742 41-179 partner limits assumed): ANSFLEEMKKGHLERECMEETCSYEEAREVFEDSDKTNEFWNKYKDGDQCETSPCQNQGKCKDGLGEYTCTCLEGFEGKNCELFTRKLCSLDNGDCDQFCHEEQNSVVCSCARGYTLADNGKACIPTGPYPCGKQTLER
The experiment in a line: Kass with other serine proteases: factor Xa. It counts as biochemical. Particulars: substrate N-Benzoyl-Ile-Glu-Gly-Arg-p-nitroanilide.

Another data set has as its target T3, Human plasmin (Homo sapiens, UniProt P00747).
T3 construct: Human plasmin is purchased from Boehringer Mannheim; purchased Boehringer Mannheim, Indianapolis, Ind
The experiment in a line: Kass with fibrinolytic system proteases: plasmin. Particulars: substrate H-D-Val-Leu-Lys-p-nitroanilide. Format: biochemical. As to the method:
as §2

The target of the next data set is T4, Bovine trypsin (Bos taurus, UniProt P00760).
T4 construct: Bovine trypsin is purchased from Worthington Biochemicals; purchased Worthington Biochemicals, Freehold, N.J
T4 sequence (P00760 24-246): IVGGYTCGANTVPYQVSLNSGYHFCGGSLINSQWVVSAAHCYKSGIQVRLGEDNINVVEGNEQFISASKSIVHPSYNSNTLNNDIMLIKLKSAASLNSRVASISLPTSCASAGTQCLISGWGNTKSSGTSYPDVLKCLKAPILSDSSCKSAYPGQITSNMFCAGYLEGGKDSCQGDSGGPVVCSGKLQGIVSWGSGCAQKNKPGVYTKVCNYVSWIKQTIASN
Put plainly: Kass with other serine proteases: trypsin. It counts as biochemical. The following applies: substrate N-Benzoyl-Phe-Val-Arg-p-nitroanilide.

The mark [7] stands for this setting: mean over a range of test compound concentrations, […].

Where a name gives a salt, the structure may show the parent alone. Read-outs that look alike come from different tables or passages of the source.

T3 sequence (P00747 581-810 limits assumed): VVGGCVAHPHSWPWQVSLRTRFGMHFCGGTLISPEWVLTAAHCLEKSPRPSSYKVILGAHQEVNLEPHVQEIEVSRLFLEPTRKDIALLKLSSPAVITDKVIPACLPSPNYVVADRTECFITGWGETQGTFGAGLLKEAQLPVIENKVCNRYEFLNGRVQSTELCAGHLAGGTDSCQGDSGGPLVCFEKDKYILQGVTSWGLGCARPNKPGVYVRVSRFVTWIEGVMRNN
T3 sequence (P00747 97-580 partner limits assumed): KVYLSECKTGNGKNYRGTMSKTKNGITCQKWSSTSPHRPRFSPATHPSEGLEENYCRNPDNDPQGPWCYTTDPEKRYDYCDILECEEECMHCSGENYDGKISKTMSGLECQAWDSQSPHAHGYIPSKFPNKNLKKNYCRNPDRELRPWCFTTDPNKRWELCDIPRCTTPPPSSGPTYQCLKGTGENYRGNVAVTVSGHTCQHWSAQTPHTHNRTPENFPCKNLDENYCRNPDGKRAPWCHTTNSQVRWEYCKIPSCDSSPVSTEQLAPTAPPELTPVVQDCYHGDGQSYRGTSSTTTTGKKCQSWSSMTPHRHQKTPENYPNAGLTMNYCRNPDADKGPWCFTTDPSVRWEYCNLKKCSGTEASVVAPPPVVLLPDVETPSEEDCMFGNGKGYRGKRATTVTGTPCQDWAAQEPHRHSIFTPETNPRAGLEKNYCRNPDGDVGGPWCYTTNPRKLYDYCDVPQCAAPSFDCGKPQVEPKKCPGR
Text for Bovine trypsin: (§3) Chromogenic substrates: N-Benzoyl-Ile-Glu-Gly-Arg-p-nitroanilide (for factor Xa); N-Cbz-D-Arg-Gly-Arg-p-nitroanilide (for factor IXa assay as the factor Xa substrate); Pyroglutamyl-Pro-Arg-p-nitroanilide (for Factor XIa and for aPC); H-D-Pro-Phe-Arg-p-nitroanilide (for factor XIIa); and Pyroglutamyl-Gly-Arg-p-nitroanilide (for urokinase); are purchased from KabiVitrum, Stockholm, Sweden, or from Midwest Biotech, Fishers, Ind. Bovine trypsin is purchased from Worthington Biochemicals, Freehold, N.J., and human plasma kallikrein from Kabi Vitrum, Stockholm, Sweden. Chromogenic substrate H-D-Pro-Phe-Arg-p-nitroanilide for plasma kallikrein is purchased from Kabi Vitrum, Stockholm, Sweden. […]
Text for factor Xa: as §3

On to `CN[C@H](Cc1ccccc1)C(=O)N1CCC[C@H]1C(=O)N[C@H](C=O)CCCNC(=N)N.O=S(=O)(O)O` [D-MePhe-Pro-Arg-H sulfate], for which the anticoagulant in man entry in data set [1] is listed as “anticoagulant in man”.
On to `CCS(=O)(=O)N[C@H](Cc1ccccc1)C(=O)N1CCC[C@H]1C(=O)NCCCCN=C(N)N.Cl` [Example 1, EtSO2 -D-Phe-Pro-Agm.HCl], for which the “% oral/i.v. activity (Rat)” value in data set [2] amounted to 8%. Moreover, the “Human Plasma Anticoagulation 2× Clotting time (ng/mL) TT” value with Human plasma [3] is reported as 250 ng/mL.
With `Cl.Cl.N=C(N)c1ccc(CNC(=O)CN(CCc2ccccc2)C(=O)[C@H]2CCCCN2)cc1` [Example 21, D-hPro-N(PhCH2CH2)Gly-p-NHCH2 C6 H4 C(NH)NH2.2HCl], the “Human Plasma Anticoagulation 2× Clotting time (ng/mL) PT” value with Human plasma [4] is 1,000 ng/mL. The “Human Plasma Anticoagulation 2× Clotting time (ng/mL) APTT” value with Human plasma [5] was 2,000 ng/mL. In addition, the “Human Plasma Anticoagulation 2× Clotting time (ng/mL) TT” value in the data set on Human plasma [3] is 160 ng/mL. In addition, at human thrombin (setting [7]), the “Kass × 10^6 (L/mole) Human Thrombin” value is listed as 3.6 × 10^6 L/mole.
Turning to `Cl.Cl.N=C(N)c1ccc(CNC(=O)C2CC3CCCCC3N2C(=O)C2NCCC3CCCCC32)cc1` [Example 42, D-1-Piq-cis-Ohi-p-NHCH2 C6 H4 C(NH)NH2.2HCl], the “Human Plasma Anticoagulation 2× Clotting time (ng/mL) PT” value in the data set on Human plasma [4] is 320 ng/mL. Also, the “Human Plasma Anticoagulation 2× Clotting time (ng/mL) APTT” value in the data set with Human plasma [5] is 270 ng/mL. Besides, the “Human Plasma Anticoagulation 2× Clotting time (ng/mL) TT” value in the data set with Human plasma [3] was 20 ng/mL. Besides, the “Kass × 10^6 (L/mole) Human Thrombin” value at human thrombin (setting [7]) is reported as 38. × 10^6 L/mole.
`N=C(N)c1ccc(CNC(=O)[C@@H]2CCCN2C(=O)[C@@H](CC2CCCCC2)NCC(=O)O)cc1` [Example 48, HOOCCH2 -D-Cha-Pro-p-NHCH2 C6 H4 C(NH)NH2.HCl]: the “Human Plasma Anticoagulation 2× Clotting time (ng/mL) PT” value in the data set with Human plasma [4] is listed as 59 ng/mL. For the same molecule, the “Kass × 10^6 (L/mole) t-PA” value in [6] is given as 0.05 × 10^6 L/mole. Besides, the “Human Plasma Anticoagulation 2× Clotting time (ng/mL) APTT” value in the data set on Human plasma [5] is given as 33 ng/mL. In addition, the “Human Plasma Anticoagulation 2× Clotting time (ng/mL) TT” value with Human plasma [3] is 2. ng/mL. Besides, the “Kass × 10^6 (L/mole) Human Thrombin” value on human thrombin (setting [7]) is given as 4,100 × 10^6 L/mole. At factor Xa, the “Kass × 10^6 (L/mole) Xa” value was 5.5 × 10^6 L/mole. The “Kass × 10^6 (L/mole) Plasmin” value on Human plasmin was 0.43 × 10^6 L/mole. The “Kass × 10^6 (L/mole) Trypsin” value at Bovine trypsin is 250. × 10^6 L/mole.
Consider `Cl.Cl.Cl.N=C(N)NCCCCNC(=O)[C@@H]1CCCN1C(=O)[C@@H]1NCC[C@H]2CCCC[C@H]21` [Example 61, (4aR,8aR)-Perhydoisoquinoline-1(R)-carbonyl-Pro-Agm.3HCl], for which the “Human Plasma Anticoagulation 2× Clotting time (ng/mL) PT” value with Human plasma [4] is 756 ng/mL. The “Human Plasma Anticoagulation 2× Clotting time (ng/mL) APTT” value with Human plasma [5] is reported as 679 ng/mL. Besides, the “Human Plasma Anticoagulation 2× Clotting time (ng/mL) TT” value with Human plasma [3] is 45 ng/mL. At human thrombin (setting [7]), the “Kass × 10^6 (L/mole) Human Thrombin” value is 63 × 10^6 L/mole.
Take `Nc1ccc(CNC(=O)[C@@H]2CCCN2C(=O)[C@@H](CC2CCCCC2)NCC(=O)O)c(F)c1` [Example 64, HO2 CCH2 -D-Cha-Pro-4-NHCH2 -3-F-C6 H3 NH2.HCl]: in the data set on Human plasma [4], the “Human Plasma Anticoagulation 2× Clotting time (ng/mL) PT” value is recorded as 650 ng/mL. The “Human Plasma Anticoagulation 2× Clotting time (ng/mL) APTT” value with Human plasma [5] is reported as 900 ng/mL. For the same molecule, the “Human Plasma Anticoagulation 2× Clotting time (ng/mL) TT” value with Human plasma [3] is given as 23 ng/mL. Besides, at human thrombin (setting [7]), the “Kass × 10^6 (L/mole) Human Thrombin” value was 15 × 10^6 L/mole.
In the same order, the values of `CCS(=O)(=O)N[C@H](CC1CCCCC1)C(=O)N1CCC[C@H]1C(=O)NCc1ccc(N)cc1F` [Example 82, EtSO2 -D-Cha-Pro-4-NHCH2 -3-F-C6 H3 NH2.HCl] are 3,000 ng/mL, 3,800 ng/mL, 130 ng/mL and 5.0 × 10^6 L/mole.
Consider `N=C(N)c1ccc(CNC(=O)[C@@H]2CCCN2C(=O)[C@@H](CCc2ccccc2)NCC(=O)O)cc1` [Example 87, HOOCCH2 -D-hPhe-Pro-p-NHCH2 C6 H4 C(NH)NH2.HCl], for which the “Human Plasma Anticoagulation 2× Clotting time (ng/mL) PT” value in the data set on Human plasma [4] is 310 ng/mL. In addition, the “Human Plasma Anticoagulation 2× Clotting time (ng/mL) APTT” value with Human plasma [5] was 260 ng/mL. Moreover, the “Human Plasma Anticoagulation 2× Clotting time (ng/mL) TT” value in the data set with Human plasma [3] is 9 ng/mL. For the same molecule, on human thrombin (setting [7]), the “Kass × 10^6 (L/mole) Human Thrombin” value is 30 × 10^6 L/mole.
For `CCS(=O)(=O)N[C@H](CC1CCCCC1)C(=O)N1CCC[C@H]1C(=O)NCc1ccc(C(=N)N)cc1F.Cl` [Example 93, EtSO2 -D-Cha-Pro-4-NHCH2 -3-F-benzamidine.HCl], the “Human Plasma Anticoagulation 2× Clotting time (ng/mL) PT” value in the data set with Human plasma [4] was 140 ng/mL. The “Human Plasma Anticoagulation 2× Clotting time (ng/mL) APTT” value in the data set with Human plasma [5] is 35 ng/mL. Besides, the “Human Plasma Anticoagulation 2× Clotting time (ng/mL) TT” value in the data set on Human plasma [3] is reported as 5.9 ng/mL. Moreover, at human thrombin (setting [7]), the “Kass × 10^6 (L/mole) Human Thrombin” value is given as 970 × 10^6 L/mole.
In the same order, the values of “EtSO2 -D-Phe-Pro-p-NHCH2 --C6 H4 C(=NH)NH2.HCl [Example 23]” are 120 ng/mL, 86 ng/mL, 7 ng/mL and 770 × 10^6 L/mole.
On to “EtSO2 -Phg-cis-Ohi-p-NHCH2 C6 H4 C(NH)NH2.HCl [Example 44]”, for which, in the data set with Human plasma [4], the “Human Plasma Anticoagulation 2× Clotting time (ng/mL) PT” value was 170 ng/mL. The “Human Plasma Anticoagulation 2× Clotting time (ng/mL) APTT” value in the data set on Human plasma [5] is on record as 100 ng/mL. Also, the “Human Plasma Anticoagulation 2× Clotting time (ng/mL) TT” value in the data set with Human plasma [3] is recorded as 4. ng/mL. In addition, the “Kass × 10^6 (L/mole) Human Thrombin” value at human thrombin worked out at 630.
